From US10030016B2 (Sunesis Pharmaceuticals, Inc., priority 2009, dated 2018)
Read-outs that look alike come from different tables or passages of the source.

Tests used:
PDK1 = PDK1 (Homo sapiens (Human), UniProt O15530); experiment: PDK1 kinase assay (coupled PDK1/AKT/FAM-crosstide assay, IMAP fluorescence polarization); type: biochemical; conditions: inhibition of PDK1 in vitro
In short: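 GST-tagged PDK1 (aa 51-359, 0.75 nM) was coupled to unphosphorylated GST-AKT2 140-467-PIFtide (10 nM) and 100 nM FAM-crosstide at 40 μM ATP, in Tris pH 7.2 buffer, for 30 min at 25 °C. Crosstide phosphorylation was read by IMAP fluorescence polarization (ΔmP) and fitted with a 4-parameter curve.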

[1] = test system: phospho-akt (Thr308) in PC-3 cells; experiment: Inhibition of phospho-akt (Thr308) in PC-3 cells, MSD phospho-akt 308 ELISA kit; type: cell-based; conditions: Homo sapiens, inhibition of P308 Akt in PC-3 cells using MSD, 2 hours, no serum, read-out: EC50
In short: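 PC-3 cells (15,000/well, overnight in 10% FBS medium) treated 2 h with three-fold diluted compounds in serum-free medium; DMSO high and 5 μM wortmannin low controls. Lysates captured on BSA-blocked MSD plates overnight at 4 °C, then 1 h antibody detection at RT; phospho-Akt Thr308 read by MSD electrochemiluminescence.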

Sequence of PDK1 (O15530 51-359): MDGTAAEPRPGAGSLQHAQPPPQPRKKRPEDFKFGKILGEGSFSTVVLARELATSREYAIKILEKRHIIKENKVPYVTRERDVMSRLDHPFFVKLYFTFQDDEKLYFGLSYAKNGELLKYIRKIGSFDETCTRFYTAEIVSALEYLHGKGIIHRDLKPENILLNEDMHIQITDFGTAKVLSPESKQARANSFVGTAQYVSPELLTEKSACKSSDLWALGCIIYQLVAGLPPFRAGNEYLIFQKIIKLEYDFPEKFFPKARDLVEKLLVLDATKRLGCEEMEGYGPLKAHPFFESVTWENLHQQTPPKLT

SMILES | IC50 (PDK1) | EC50 [1] | EC50 ([1]; PC-3, 2 h)
Cn1ccc(NC(=O)c2cc(C(F)(F)F)cnc2NCc2ccc(-c3cnc4[nH]nc(N)c4c3)cc2)n1 [Example 307, 2-(4-(3-amino-1H-pyrazolo [3,4-b]pyridin-5-yl)benzylamino)-N-(1-methyl-1H-pyrazol-3-yl)-5-(trifluoromethyl)nicotinamide] | 1000 to 5000 nM | 1000 to 10000 nM | –
Nc1n[nH]c2ncc(-c3ccc(CNc4ncc(C(F)(F)F)cc4C(=O)N[C@@H](CO)c4ccc(F)cc4)cc3)cc12 [Example 308, (R)-2-(4-(3-amino-1H-pyrazolo [3,4-b]pyridin-5-yl)benzylamino)-N-(1-(4-fluorophenyl)-2-hydroxyethyl)-5-(trifluoromethyl)nicotinamide] | < 100 nM | < 1000 nM | –
Nc1n[nH]c2ncc(-c3ccc(CNc4ncc(C(F)(F)F)cc4C(=O)NC[C@@H]4CCCO4)cc3)cc12 [Example 309, (S)-2-(4-(3-amino-1H-pyrazolo [3,4-b]pyridin-5-yl)benzylamino)-N-((tetrahydrofuran-2-yl)methyl)-5-(trifluoromethyl) nicotinamide] | 100 to 1000 nM | – | 1000 to 10000 nM
N#Cc1cnc(NCc2ccc(-c3cnc4[nH]nc(N)c4c3)cc2)c(C(=O)NCc2cncc(F)c2)c1 [Example 311, 2-(4-(3-amino-1H-pyrazolo [3,4-b]pyridin-5-yl)benzylamino)-5-cyano-N-((5-fluoropyridin-3-yl)-5-methyl)nicotinamide] | < 100 nM | < 1000 nM | –
N#Cc1cnc(NCc2ccc(Oc3cccnc3N)cc2)c(C(=O)NCc2ccc(F)c(F)c2)c1 [Example 313, 2-(4-(2-aminopyridin-3-yloxy)benzylamino)-5-cyano-N-(3,4-difluorobenzyl) nicotinamide] | > 5000 nM | > 10000 nM | –
N#Cc1cnc(NCc2ccc(Oc3cc(N)ncn3)cc2)c(C(=O)NCc2ccc(F)c(F)c2)c1 [Example 314, 2-(4-(6-aminopyrimidin-4-yloxy)benzylamino)-5-cyano-N-(3,4-difluorobenzyl)nicotinamide] | 1000 to 5000 nM | > 10000 nM | –
C[C@H](NC(=O)c1nc(C#N)cnc1NCc1ccc(-c2cn(CCCN(C)C)c3ncnc(N)c23)cc1)c1ccc(F)c(F)c1 [Example 316, (S)-3-(4-(4-amino-7-(3-(dimethylamino)propyl)-7H-pyrrolo[2,3-d]pyrimidin-5-yl)benzylamino)-6-cyano-N-(1-(3,4-difluoro-phenyl)ethyl)pyrazine-2-carboxamide] | < 100 nM | 1000 to 10000 nM | –
COCCCn1cc(-c2ccc(CNc3ncc(C#N)nc3C(=O)N[C@@H](C)c3ccc(F)c(F)c3)cc2)c2c(N)ncnc21 [Example 317, (S)-3-(4-(4-amino-7-(3-methoxypropyl)-7H-pyrrolo[2,3-d]pyrimidin-5-yl)benzylamino)-6-cyano-N-(1-(3,4-difluoro-phenyl)ethyl)pyrazine-2-carboxamide] | < 100 nM | < 1000 nM | –
C[C@H](NC(=O)c1nc(C#N)cnc1NCc1ccc(-c2cn(CCN)c3ncnc(N)c23)cc1)c1ccc(F)c(F)c1 [Example 319, (S)-3-(4-(4-amino-7-(2-aminoethyl)-7H-pyrrolo[2,3-d]pyrimidin-5-yl)benzylamino)-6-cyano-N-(1-(3,4-difluoro-phenyl)ethyl)pyrazine-2-carboxamide] | < 100 nM | < 1000 nM | –
N#Cc1cnc(NCc2ccc(-c3c[nH]c4ncnc(N)c34)cc2)c(C(=O)Nc2ccc(F)cc2)n1 [Example 320, 3-(4-(4-amino-7H-pyrrolo[2,3-d]pyrimidin-5-yl)benzylamino)-6-cyano-N-(4-fluorophenyl) pyrazine-2-carboxamide] | < 100 nM | < 1000 nM | –
Nc1ncnc2[nH]cc(-c3ccc(CNc4ncc(C(F)(F)F)cc4C(=O)Nc4ccc(F)cc4)cc3)c12 [Example 321, 2-(4-(4-amino-7H-pyrrolo [2,3-d]pyrimidin-5-yl)benzylamino)-N-(4-fluorophenyl)-5-(trifluoromethyl)nicotinamide] | < 100 nM | < 1000 nM | –
Nc1ncnc2c1c(-c1ccc(CNc3ncc(C(F)(F)F)cc3C(=O)Nc3ccc(F)cc3)cc1)cn2CCO [Example 324, 2-(4-(4-amino-7-(2-hydroxyethyl)-7H-pyrrolo [2,3-d]pyrimidin-5-yl)benzylamino)-N-(4-fluorophenyl)-5-(trifluoromethyl)nicotinamide] | < 100 nM | < 1000 nM | –
O=C(NCc1ccc(F)c(F)c1)c1cccnc1NCc1ccc(-c2cnc3[nH]ncc3c2)nc1 [Example 327] | < 100 nM | 1000 to 10000 nM | –
Nc1ncnc2[nH]nc(-c3ccc(CNc4ncc(C(F)(F)F)cc4C(=O)NCc4ccc(F)c(F)c4)cc3)c12 [Example 329, 2-[4-(4-Amino-1H-pyrazolo [3,4-d]pyrimidin-3-yl)-benzylamino]-N-(3,4-difluoro-benzyl)-5-trifluoromethyl-nicotinamide] | < 100 nM | < 1000 nM | –

Results, then the compound that gave them:

IC50 (PDK1) | EC50 [1] | EC50 ([1]; PC-3, 2 h) | SMILES
< 100 nM | 1000 to 10000 nM | – | Nc1n[nH]c2ncc(-c3ccc(CNc4ncc(C(F)(F)F)cc4C(=O)NC4CCCC4)cc3)cc12 [Example 302, 2-(4-(3-amino-1H-pyrazolo [3,4-b]pyridin-5-yl)benzylamino)-N-cyclopentyl-5-(trifluoromethyl)nicotinamide]
< 100 nM | 1000 to 10000 nM | – | Nc1n[nH]c2ncc(-c3ccc(CNc4ncc(C(F)(F)F)cc4C(=O)Nc4ccncn4)cc3)cc12 [Example 303, 2-(4-(3-amino-1H-pyrazolo [3,4-b]pyridin-5-yl)benzylamino)-N-(pyrimidin-4-yl)-5-(trifluoromethyl)nicotinamide]
< 100 nM | < 1000 nM | – | Nc1n[nH]c2ncc(-c3ccc(CNc4ncc(C(F)(F)F)cc4C(=O)Nc4ccc(Cl)cc4)cc3)cc12 [Example 304, 2-(4-(3-amino-1H-pyrazolo [3,4-b]pyridin-5-yl)benzylamino)-N-(4-chlorophenyl)-5-(trifluoromethyl)nicotinamide]
100 to 1000 nM | 1000 to 10000 nM | – | Nc1n[nH]c2ncc(-c3ccc(CNc4ncc(C(F)(F)F)cc4C(=O)NC4CCOC4)cc3)cc12 (stereo not shown) [Example 305, 2-(4-(3-amino-1H-pyrazolo [3,4-b]pyridin-5-yl)benzylamino)-N-(tetrahydrofuran-3-yl)-5-(trifluoromethyl)nicotinamide]
< 100 nM | < 1000 nM | – | Nc1n[nH]c2ncc(-c3ccc(CNc4ncc(C(F)(F)F)cc4C(=O)Nc4cncc(F)c4)cc3)cc12 [Example 306, 2-(4-(3-amino-1H-pyrazolo [3,4-b]pyridin-5-yl)benzylamino)-N-(5-fluoropyridin-3-yl)-5-(trifluoromethyl)nicotinamide]
< 100 nM | < 1000 nM | – | N#Cc1cnc(NCc2ccc(-c3ccc(N)nc3)cc2)c(C(=O)NCc2cncc(F)c2)c1 [Example 310, 2-(4-(6-aminopyridin-3-yl)benzylamino)-5-cyano-N-((5-fluoropyridin-3-yl)methyl)nicotinamide]
< 100 nM | < 1000 nM | – | N#Cc1cnc(NCc2ccc(-c3cnc(N)cn3)cc2)c(C(=O)NCc2cncc(F)c2)c1 [Example 312, 2-(4-(5-aminopyrazin-2-yl)benzylamino)-5-cyano-N-((5-fluoropyridin-3-yl)-methyl)nicotinamide]
< 100 nM | < 1000 nM | – | C[C@H](NC(=O)c1nc(C#N)cnc1NCc1ccc(-c2c[nH]c3ncnc(N)c23)cc1)c1ccc(F)c(F)c1 [Example 315, (S)-3-(4-(4-amino-7H-pyrrolo[2,3-d]pyrimidin-5-yl)benzylamino)-6-cyano-N-(1-(3,4-difluoro-phenyl)ethyl)pyrazine-2-carboxamide]
< 100 nM | < 1000 nM | – | C[C@H](NC(=O)c1nc(C#N)cnc1NCc1ccc(-c2cn(CCCN)c3ncnc(N)c23)cc1)c1ccc(F)c(F)c1 [Example 318, (S)-3-(4-(4-amino-7-(3-aminopropyl)-7H-pyrrolo[2,3-d]pyrimidin-5-yl)benzylamino)-6-cyano-N-(1-(3,4-difluoro-phenyl)ethyl)pyrazine-2-carboxamide]
< 100 nM | < 1000 nM | – | Nc1ncnc2c1c(-c1ccc(CNc3ncc(C(F)(F)F)cc3C(=O)Nc3ccc(F)cc3)cc1)cn2CCCO [Example 322, 2-(4-(4-amino-7-(3-hydroxypropyl)-7H-pyrrolo [2,3-d]pyrimidin-5-yl)benzylamino)-N-(4-fluorophenyl)-5-(trifluoromethyl)nicotinamide]
< 100 nM | < 1000 nM | – | Cn1cc(-c2ccc(CNc3ncc(C(F)(F)F)cc3C(=O)Nc3ccc(F)cc3)cc2)c2c(N)ncnc21 [Example 323, 2-(4-(4-amino-7-methyl-7H-pyrrolo[2,3-d]pyrimidin-5-yl)benzylamino)-N-(4-fluorophenyl)-5-(trifluoromethyl)nicotinamide]
100 to 1000 nM | – | 1000 to 10000 nM | Nc1cnc(-c2ccc(CNc3ncc(C(F)(F)F)cc3C(=O)Nc3ccc(F)cc3)cn2)cn1 [Example 325]
100 to 1000 nM | > 10000 nM | – | Nc1cnc(-c2ccc(CNc3ncc(C(F)(F)F)cc3C(=O)NCc3ccc(F)c(F)c3)cn2)cn1 [Example 326]
< 100 nM | > 10000 nM | – | O=C(NCc1ccc(F)c(F)c1)c1cccnc1NCc1ccc(-c2cnc3[nH]ccc3c2)nc1 [Example 328]
< 100 nM | < 1000 nM | – | Nc1ncnc2[nH]cc(-c3ccc(CNc4ncc(C(F)(F)F)cc4C(=O)NCc4ccc(F)c(F)c4)cc3)c12 [Example 330, 2-[4-(4-Amino-7H-pyrrolo [2,3-d]pyrimidin-5-yl)-benzylamino]-N-(3,4-difluoro-benzyl)-5-trifluoromethyl-nicotinamide]
